From patent publication US20090253687A1, “Fused Heterocyclic Compounds and Their Use as Mineralocorticoid Receptor Ligands” (priority 2005, published 2009) come the findings set out here.

The target in series [1] is T1, Human Mineralocorticoid Receptor (hMR) (Homo sapiens, UniProt P08235).
T1 construct: Full-length cDNA was constructed from two fragments of hMR cDNA amplified separately; expressed in transfected cells; host or cells: FreeStyle 293 cells transiently transfected with pMCMVneo-hMR; supernatant of the freeze-thaw lysate after ultracentrifugation
T1 sequence (P08235 1-984): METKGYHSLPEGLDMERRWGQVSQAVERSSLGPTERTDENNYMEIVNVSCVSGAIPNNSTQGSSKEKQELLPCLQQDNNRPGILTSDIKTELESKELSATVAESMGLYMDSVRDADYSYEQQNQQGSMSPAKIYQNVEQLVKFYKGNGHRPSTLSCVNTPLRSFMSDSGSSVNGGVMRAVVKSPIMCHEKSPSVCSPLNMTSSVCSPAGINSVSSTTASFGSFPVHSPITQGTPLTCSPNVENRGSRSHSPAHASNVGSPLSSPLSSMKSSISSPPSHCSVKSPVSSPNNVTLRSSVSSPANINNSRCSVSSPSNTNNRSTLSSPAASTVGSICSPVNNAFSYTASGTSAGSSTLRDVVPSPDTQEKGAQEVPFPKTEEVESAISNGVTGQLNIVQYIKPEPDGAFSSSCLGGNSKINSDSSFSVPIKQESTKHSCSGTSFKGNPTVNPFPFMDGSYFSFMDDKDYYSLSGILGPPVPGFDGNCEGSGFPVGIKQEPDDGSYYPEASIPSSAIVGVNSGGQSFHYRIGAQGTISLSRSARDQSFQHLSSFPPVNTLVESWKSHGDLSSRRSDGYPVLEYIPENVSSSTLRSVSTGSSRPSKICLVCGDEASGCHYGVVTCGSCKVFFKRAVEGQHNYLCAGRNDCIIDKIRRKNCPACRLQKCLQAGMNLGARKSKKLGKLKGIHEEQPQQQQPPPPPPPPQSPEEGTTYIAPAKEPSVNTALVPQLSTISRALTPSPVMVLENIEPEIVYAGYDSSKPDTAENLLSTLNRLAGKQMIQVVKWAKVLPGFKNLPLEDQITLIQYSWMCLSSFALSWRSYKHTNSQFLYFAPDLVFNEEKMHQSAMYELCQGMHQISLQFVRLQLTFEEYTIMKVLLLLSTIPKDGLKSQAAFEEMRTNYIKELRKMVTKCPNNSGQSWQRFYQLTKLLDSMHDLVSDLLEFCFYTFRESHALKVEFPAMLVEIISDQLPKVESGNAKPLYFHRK
As to the kind of experiment: Inhibition of binding of [3H]-aldosterone to hMR (lysate of FreeStyle 293 cells expressing hMR). As to conditions: compound at 10^−5 M; 10 nM [3H]-aldosterone; hMR lysate 1.0 mg/ml; 16 hr at 4° C.; read-out: Inhibition rate (at 10^−5 M). Here is the method:
The following procedures described in this Example were carried out according to the methods described in Molecular Cloning—Cold Spring Harbor Laboratory (1989) or protocols specified by manufacturers. (1) Cloning of Human Mineralocorticoid Receptor (hMR) cDNA hMR cDNA was amplified by polymerase chain reaction (PCR) from human kidney cDNA library. Full-length cDNA was constructed from two fragments of hMR cDNA amplified separately. The primers were designed referring to the nucleotide sequence of hMR cDNA reported by Arriza et. al (Science 1987; 237: 268-275). The PCR reactions were carried out using Pyrobest® DNA polymerase (Takara). The PCR products were electrophoresed in agarose gel, and 1.7 kb (region (i)) and 1.5 kb (region (ii)) DNA fragments were recovered. Each DNA fragment was inserted into pCR®4Blunt-TOPO® vector (Invitrogen). The resulting plasmids thus obtained were designated as pB-hMR (i) and pB-hMR (ii). To obtain the full-length hMR cDNA, pB-hMR (i) was digested with XhoI and PvuI, and pB-hMR (ii) was digested with PvuI and KpnI, respectively, and the two cDNA fragments were ligated into pBlueScript®IISK+ vector (Stratagene). The resulting plasmid thus obtained was designated as pB-hMR. (2) Construction of hMR Expression Plasmid pMCMVneo (described in WO03/099793) was digested with XhoI and KpnI, and 5.6 kb fragment was ligated with 2.9 kb hMR cDNA fragment obtained by digestion of pB-hMR (described in above (1)) with XhoI and KpnI. The plasmid thus obtained was designated as pMCMVneo-hMR. (3) Expression of hMR in FreeStyle 293 Cells and Preparation of Cell Lysate FreeStyle 293 cells were inoculated at 1×10^8 cells in 93 ml FreeStyle™ 293 Expression Medium (Invitrogen) in a 500 ml Erlenmeyer flask and cultured at 37° C. under 8% CO2 for 1 hr. The cells were treated with 6.7 ml of the transfection mixture containing 100 μg of pMCMVneo-hMR obtained in above (2) and 133 μl of FreeStyle™ 293 Transfection Reagent (Invitrogen). The transfected cells were cultivated for 48 hr at 37° C. in 8% CO2 atmosphere. The cultivated cells were centrifuged and washed with TEG buffer (10 mM Tris-HCl (pH 7.2), 50 mM EDTA, 10% glycerol), and resuspended in 10 ml TEGM buffer (10 mM Tris-HCl (pH 7.2), 1 mM EDTA, 10% glycerol, 1 mM β-mercaptoethanol, 10 mM sodium molybdate, 1 mM dithiothreitol, 2 tablets/100 ml of protease inhibitor cocktail tablets (Roche)). The cell suspension was frozen with liquid nitrogen and thawed on ice, and ultra-centrifuged at 225,000×g for 20 min at 4° C. The supernatant fraction including hMR (hMR lysate) was collected and stored at −80° C. (4) Measurement of Inhibition Activity Against Binding of hMR and Aldosterone [^3H]-Aldosterone (Amersham Biosciences) as ligand was added at 10 nM to the reaction mixture including test compound at various concentration and hMR lysate (1.0 mg/ml) obtained in above (3) and mixture was filled up to 50.5 μl with TEGM buffer. The reaction mixture was incubated for 16 hr at 4° C. and 35 μl of dextran/gelatin coated charcoal suspension (5% charcoal, 0.5% dextran T-70 (Amersham Biosciences), 0.1% gelatin (SIGMA), 10 mM Tris HCl (pH 7.2), 1 mM EDTA) was added thereto to separate bound and free radioactive aldosterone. The mixture containing charcoal was incubated for 10 min at 4° C. and centrifuged at 910×g for 10 min at 4° C. Radioactivity in 30 μl of the supernatant was measured by TopCount™ (Packard). For the determination of nonspecific binding, cold Aldosterone instead of drug was added to reaction mixture at 100 μM. Specific binding was determined by subtracting nonspecific binding from total binding.

`O=C1COc2ccc(C3=Cc4ccccc4[S+]([O-])C3c3ccccc3)cc2N1` (centres unmarked) [Example 22, 6-(1-oxido-2-phenyl-2H-thiochromen-3-yl)-2H-1,4-benzoxazin-3(4H)-one] gave a melting point of 228 °C. Turning to `Cc1ccccc1-n1nc(C(F)(F)F)cc1-c1ccc2c(c1)NC(=O)CO2` [Example 82, 6-(1-o-tolyl-3-(trifluoromethyl)-1H-pyrazol-5-yl)-2H-benzo[b][1,4]oxazin-3(4H)-one], the inhibition at 10 µM in series [1] is at least 70%. Turning to `Cc1cc(Cl)ccc1-n1nc(C(F)(F)F)cc1-c1ccc2c(c1)NC(=O)CO2` [Example 86, 6-(1-(4-chloro-2-methylphenyl)-3-(trifluoromethyl)-1H-pyrazol-5-yl)-2H-benzo[b][1,4]oxazin-3(4H)-one], the inhibition at 10 µM in series [1] was at least 70%. Turning to `Cc1ccc(C)c(-n2nc(C(F)(F)F)cc2-c2ccc3c(c2)NC(=O)CO3)c1` [Example 93, 6-(1-(2,5-dimethylphenyl)-3-(trifluoromethyl)-1H-pyrazol-5-yl)-2H-benzo[b][1,4]oxazin-3(4H)-one], in series [1], the inhibition at 10 µM was at least 70%. For the compound `O=C1COc2ccc(-c3cc(C(F)(F)F)nn3-c3ccccc3)cc2N1` [Example 96, 6-(1-Phenyl-3-(trifluoromethyl)-1H-pyrazol-5-yl)-2H-benzo[b][1,4]oxazin-3(4H)-one], the inhibition at 10 µM in series [1] is at least 70%. As to `O=C1COc2ccc(-c3cc(C(F)(F)C(F)(F)F)nn3-c3ccc(F)cc3)cc2N1` [Example 100, 6-(1-(4-Fluorophenyl)-3-(perfluoroethyl)-1H-pyrazol-5-yl)-2H-benzo[b][1,4]oxazin-3(4H)-one], the inhibition at 10 µM in series [1] is at least 70%. As to `Cc1cc(F)ccc1-n1nc(C(F)(F)F)cc1-c1ccc2c(c1)NC(=O)CO2` [Example 107, 6-(1-(4-fluoro-2-methylphenyl)-3-(trifluoromethyl)-1H-pyrazol-5-yl)-2H-benzo[b][1,4]oxazin-3(4H)-one], the inhibition at 10 µM in series [1] is at least 70%. Same read-out and setting: as for `Cc1cc(F)ccc1-n1nc(C(F)(F)F)cc1-c1cc(F)c2c(c1)NC(=O)CO2` [Example 108, 8-fluoro-6-(1-(4-fluoro-2-methylphenyl)-3-(trifluoromethyl)-1H-pyrazol-5-yl)-2H-benzo[b][1,4]oxazin-3(4H)-one], the figure is at least 70%; as for `Cc1cc(F)ccc1-n1nc(C(F)(F)F)cc1-c1cc(C)c2c(c1)NC(=O)CO2` [Example 110, 6-(1-(4-fluoro-2-methylphenyl)-3-(trifluoromethyl)-1H-pyrazol-5-yl)-8-methyl-2H-benzo[b][1,4]oxazin-3(4H)-one], at least 70%. Same read-out and setting: the result for `O=C1COc2c(Cl)cc(C3=Cn4ccnc4SC3c3ccc(F)cc3)cc2N1` (centres unmarked) [Example 118, 8-chloro-6-[7-(4-fluorophenyl)-7H-imidazo[2,1-b][1,3]thiazin-6-yl]-2H-1,4-benzoxazin-3(4H)-one] reads at least 70%; that for `N#Cc1ccc2c(c1)SC(c1ccccc1)C(c1ccc3c(c1)NC(=O)CO3)=C2` (centres unmarked) [Example 130, 3-(3-oxo-3,4-dihydro-2H-1,4-benzoxazin-6-yl)-2-phenyl-2H-thiochromene-7-carbonitrile], at least 70%; that for `O=C1COc2ccc(C3=Cc4ccccc4SC3c3ccc(F)cc3)cc2N1` (centres unmarked) [Example 158, 6-[2-(4-fluorophenyl)-2H-thiochromen-3-yl]-2H-1,4-benzoxazin-3(4H)-one], at least 70%.

Turning to `Cc1cc(C2=Nn3cnnc3SC2c2ccc(F)cc2)cc2c1OCC(=O)N2` (centres unmarked) [Example 185, 6-[7-(4-fluorophenyl)-7H-[1,2,4]triazolo[3,4-b][1,3,4]thiadiazin-6-yl]-8-methyl-2H-1,4-benzoxazin-3(4H)-one], the inhibition at 10 µM in series [1] was at least 70%. Consider `O=C1COc2c(F)cc(C3=Nn4cnnc4SC3c3ccc(F)cc3)cc2N1` (centres unmarked) [Example 195, 8-fluoro-6-[7-(4-fluorophenyl)-7H-[1,2,4]triazolo[3,4-b][1,3,4]thiadiazin-6-yl]-2H-1,4-benzoxazin-3(4H)-one], for which, in series [1], the inhibition at 10 µM was at least 70%. Same read-out and setting: the result for `Cc1cc(F)ccc1-n1nc(C(F)(F)F)cc1-c1cc(C)c2c(n1)NC(=O)CO2` [Example 255, 6-[1-(4-fluoro-2-methylphenyl)-3-(trifluoromethyl)-1H-pyrazol-5-yl]-8-methyl-2H-pyrido[3,2-b][1,4]oxazin-3(4H)-one] reads at least 70%. Regarding `Cc1nn(C)c(-c2ccc3c(c2)NC(=O)CO3)c1-c1ccccc1` [Example 288, 6-(1,3-dimethyl-4-phenyl-1H-pyrazol-5-yl)-2H-benzo[b][1,4]oxazin-3(4H)-one], in series [1], the inhibition at 10 µM was at least 70%. With `Cc1cc(F)ccc1-n1nc(C(C)(F)F)cc1-c1cc(C)c2c(c1)NC(=O)CO2` [Example 310, 6-(3-(1,1-Difluoroethyl)-1-(4-fluoro-2-methylphenyl)-1H-pyrazol-5-yl)-8-methyl-2H-benzo[b][1,4]oxazin-3(4H)-one], the inhibition at 10 µM in series [1] was at least 70%.
